This is an account of results in PubChem BioAssay (NCI).

The structures appear in SMILES notation.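 Step 1: Grow cells in 96-well plates. Step 2: Expose to compound for 48 hours at 5 concentrations. Step 3: Interpolate endpoints linearly; if unreached, use highest concentration. The concentration for 50% growth inhibition is given as GI50. TGI denotes the concentration required for complete inhibition of growth.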 Where only a bound is given, the exact number is not on record here.

Some test systems named below: MOLT-4 leukemia; NCI-H460 lung; HS 578T breast; TK-10 renal; HCC-2998 colon; OVCAR-8 ovarian; NCI/ADR-RES ovarian; SK-MEL-2 melanoma; SF-539 CNS; SN12C renal.
What all share (experiment): inhibition of tumour cell growth, NCI panel, 48 h

Take `C[C@@H]1OC(=O)C[C@H]2CC(=O)N(CCC3CN(C(=O)OCc4ccccc4)c4ccccc43)C[C@@H]21` (some centres not stated): the TGI with MOLT-4 leukemia, with NCI-H460 lung, in the experiment with HS 578T breast, in the experiment on TK-10 renal, in the experiment with HCC-2998 colon and with OVCAR-8 ovarian was > 100 µM in each case. Besides, the TGI in the experiment on NCI/ADR-RES ovarian and in the experiment on SK-MEL-2 melanoma was > 100 µM in each case.
`CCCCN(CCCC)Cc1cc(Nc2ccnc3cc(Cl)ccc23)ccc1O`: the GI50 in the experiment on MOLT-4 leukemia was 37.5 µM; with TK-10 renal, 2.62 µM; with HCC-2998 colon, 42.4 µM; in the experiment on OVCAR-8 ovarian, 9.03 µM; with NCI/ADR-RES ovarian, 4.38 µM; with SK-MEL-2 melanoma it was 45.1 µM. The TGI is > 100 µM in the experiment with MOLT-4 leukemia; 26.4 µM in the experiment on TK-10 renal; > 100 µM in the experiment with HCC-2998 colon; > 100 µM with OVCAR-8 ovarian; > 100 µM in the experiment with NCI/ADR-RES ovarian; > 100 µM in the experiment with SK-MEL-2 melanoma.
As for `C1=C(c2ccccc2)SC(N2CCCCC2)S1` (configuration not stated), the TGI in the experiment with SF-539 CNS, in the experiment with MOLT-4 leukemia, in the experiment with NCI-H460 lung, in the experiment with SN12C renal, in the experiment with TK-10 renal and in the experiment on SK-MEL-2 melanoma was > 100 µM each time.
For the compound `CCOC(=O)C(C#N)(Cc1c[nH]c2ccccc12)NC(C)=O` (configuration not stated), the TGI with MOLT-4 leukemia, in the experiment with NCI-H460 lung, in the experiment with SN12C renal, in the experiment with TK-10 renal, in the experiment with HCC-2998 colon and with OVCAR-8 ovarian was > 100 µM each time. In addition, the TGI with SK-MEL-2 melanoma was > 100 µM.
On to `C=CCC1(C#N)C(=S)NC2=C(C(=O)CC(C)(C)C2)C1c1ccccc1` (configuration not stated), for which the TGI is > 100 µM in the experiment with SF-539 CNS; > 100 µM with MOLT-4 leukemia; > 100 µM in the experiment on SN12C renal; 53.1 µM with OVCAR-8 ovarian; > 100 µM in the experiment with NCI/ADR-RES ovarian; > 100 µM in the experiment with SK-MEL-2 melanoma.
Regarding `O=S1(=O)c2ccccc2Oc2ccc(C(/C=N/O)=N/O)cc21`, the TGI in the experiment on SF-539 CNS is 84.8 µM; with MOLT-4 leukemia, > 100 µM; in the experiment on NCI-H460 lung it was > 100 µM; in the experiment on SN12C renal it was > 100 µM; with TK-10 renal, 30.8 µM; in the experiment on OVCAR-8 ovarian it was 47.7 µM. The TGI in the experiment on NCI/ADR-RES ovarian amounted to 53.9 µM; in the experiment on SK-MEL-2 melanoma, 70.7 µM.
`CC(N=NNc1ccc(-c2nc3ccccc3[nH]2)cc1)C(=O)O` (configuration not stated): the TGI was > 100 µM with SF-539 CNS; > 100 µM in the experiment with MOLT-4 leukemia; 79 µM in the experiment on NCI-H460 lung; > 100 µM in the experiment on SN12C renal; > 100 µM in the experiment with HS 578T breast; > 100 µM in the experiment with TK-10 renal. The results for the TGI in the experiment with OVCAR-8 ovarian, with NCI/ADR-RES ovarian and with SK-MEL-2 melanoma were > 100 µM, 90.6 µM and > 100 µM, respectively.
For the compound `CCOC(=O)c1c(C)n(Cc2ccc(Cl)cc2Cl)c2c1cc(O)c1[nH]c3c(c12)CCCC3`, the TGI in the experiment on SF-539 CNS stood at 56.9 µM; in the experiment with MOLT-4 leukemia, 29.4 µM; in the experiment with NCI-H460 lung, 89.9 µM; in the experiment on SN12C renal it was 58.6 µM; with TK-10 renal, 45.4 µM; in the experiment with HCC-2998 colon, 63 µM. The TGI in the experiment on OVCAR-8 ovarian was determined as 53.5 µM; with NCI/ADR-RES ovarian, 43.4 µM; in the experiment with SK-MEL-2 melanoma, 60.9 µM.
As for `C[C@H](c1ccccc1)N1C(=O)[C@@H](O)[C@H]1[C@H](CO)OCc1ccccc1`, the TGI with MOLT-4 leukemia, in the experiment with SN12C renal, in the experiment with HS 578T breast, in the experiment on TK-10 renal, with OVCAR-8 ovarian and in the experiment on NCI/ADR-RES ovarian was > 100 µM each time. For the same compound, the TGI in the experiment with SK-MEL-2 melanoma was > 100 µM.
Turning to `O=c1[nH]cc(NCCCl)c(=O)[nH]1`, the TGI in the experiment on SF-539 CNS, in the experiment on MOLT-4 leukemia, in the experiment with NCI-H460 lung, in the experiment with SN12C renal, in the experiment with TK-10 renal and in the experiment with HCC-2998 colon was > 100 µM each time. Further, the TGI in the experiment with OVCAR-8 ovarian, in the experiment on NCI/ADR-RES ovarian and in the experiment on SK-MEL-2 melanoma was > 100 µM each time.
On to `Cc1ccc2c(c1)-c1nc(N)c(C#N)c(-c3ccc(Cl)cc3)c1CCS2(=O)=O`, for which the TGI in the experiment with NCI-H460 lung, in the experiment with SN12C renal, in the experiment with HS 578T breast, in the experiment with TK-10 renal, in the experiment with HCC-2998 colon and in the experiment on OVCAR-8 ovarian was > 100 µM in each case. The TGI in the experiment with NCI/ADR-RES ovarian and in the experiment with SK-MEL-2 melanoma was > 100 µM in each case.
As for `N=C1C(=N)c2ccccc2-c2ccccc21.[Cl-].[Ru+2].c1ccc(-c2ccccn2)nc1.c1ccc(-c2ccccn2)nc1`, the TGI in the experiment on SF-539 CNS, with MOLT-4 leukemia, in the experiment with NCI-H460 lung, with SN12C renal, in the experiment with TK-10 renal and with HCC-2998 colon was > 100 µM throughout. Besides, the TGI with OVCAR-8 ovarian and in the experiment with SK-MEL-2 melanoma was > 100 µM each time.
For the compound `O=C(/C=C(/C=C/c1ccc2[nH]ccc2c1)OB(F)F)/C=C/c1ccc2[nH]ccc2c1`, the GI50 is 2.68 µM in the experiment on SF-539 CNS; 2.06 µM in the experiment on MOLT-4 leukemia; 2.6 µM in the experiment with SN12C renal; 3.96 µM in the experiment with HS 578T breast; 4.78 µM in the experiment on TK-10 renal; 2.51 µM with OVCAR-8 ovarian. Further, the results for the GI50 with NCI/ADR-RES ovarian and in the experiment with SK-MEL-2 melanoma were 2.7 µM and 4.6 µM, respectively. In addition, the TGI in the experiment on SF-539 CNS was 9.29 µM; in the experiment on MOLT-4 leukemia, > 100 µM; in the experiment with SN12C renal, 18.9 µM; in the experiment on HS 578T breast, > 100 µM; in the experiment with TK-10 renal, > 100 µM; in the experiment on OVCAR-8 ovarian it was > 100 µM. For the same compound, the TGI is > 100 µM in the experiment on NCI/ADR-RES ovarian and 86.2 µM in the experiment with SK-MEL-2 melanoma.
For `CC(=O)O[C@H]1CC(C)(C)C(=C=C/C(C)=C/C=C/C=C/C=C(C)/C=C2C=C(/C=C/[C@@]34O[C@]3(C)C[C@@H](O)CC4(C)C)C(=O)O/2)[C@](C)(O)C1`, the TGI in the experiment on SF-539 CNS was 38 µM; in the experiment on MOLT-4 leukemia, 24.1 µM; in the experiment with NCI-H460 lung, > 100 µM; with SN12C renal it was 35.8 µM; in the experiment with TK-10 renal, 21.3 µM; in the experiment with HCC-2998 colon, > 100 µM. The TGI in the experiment with OVCAR-8 ovarian is 25.2 µM; in the experiment on NCI/ADR-RES ovarian it was 34.5 µM; in the experiment with SK-MEL-2 melanoma, 17.6 µM.
